Results taken from patent publication US8846699B2, “Quinazoline derivatives as a multiplex inhibitor and method for the preparation thereof” (Hanmi Pharm. Co., Ltd., priority 2005, dated 2014).

What was measured:
[1] = system: Human Umbilical Vein Endothelial Cell (HUVEC); assay: Inhibitory effect on growth of human umbilical vein endothelial cell (HUVEC), MTS; type: cell-based; details: 10 ng/ml VEGF, absorbance 490 nm
VEGFR2 (KDR) = VEGFR2 (KDR) (Homo sapiens (Human), UniProt P35968); assay: VEGFR2 (KDR) enzyme assay, fluorescence polarization; type: biochemical; details: 5 μM ATP, poly(Glu, Tyr) substrate
Sequence of VEGFR2 (KDR) (P35968 20-1356): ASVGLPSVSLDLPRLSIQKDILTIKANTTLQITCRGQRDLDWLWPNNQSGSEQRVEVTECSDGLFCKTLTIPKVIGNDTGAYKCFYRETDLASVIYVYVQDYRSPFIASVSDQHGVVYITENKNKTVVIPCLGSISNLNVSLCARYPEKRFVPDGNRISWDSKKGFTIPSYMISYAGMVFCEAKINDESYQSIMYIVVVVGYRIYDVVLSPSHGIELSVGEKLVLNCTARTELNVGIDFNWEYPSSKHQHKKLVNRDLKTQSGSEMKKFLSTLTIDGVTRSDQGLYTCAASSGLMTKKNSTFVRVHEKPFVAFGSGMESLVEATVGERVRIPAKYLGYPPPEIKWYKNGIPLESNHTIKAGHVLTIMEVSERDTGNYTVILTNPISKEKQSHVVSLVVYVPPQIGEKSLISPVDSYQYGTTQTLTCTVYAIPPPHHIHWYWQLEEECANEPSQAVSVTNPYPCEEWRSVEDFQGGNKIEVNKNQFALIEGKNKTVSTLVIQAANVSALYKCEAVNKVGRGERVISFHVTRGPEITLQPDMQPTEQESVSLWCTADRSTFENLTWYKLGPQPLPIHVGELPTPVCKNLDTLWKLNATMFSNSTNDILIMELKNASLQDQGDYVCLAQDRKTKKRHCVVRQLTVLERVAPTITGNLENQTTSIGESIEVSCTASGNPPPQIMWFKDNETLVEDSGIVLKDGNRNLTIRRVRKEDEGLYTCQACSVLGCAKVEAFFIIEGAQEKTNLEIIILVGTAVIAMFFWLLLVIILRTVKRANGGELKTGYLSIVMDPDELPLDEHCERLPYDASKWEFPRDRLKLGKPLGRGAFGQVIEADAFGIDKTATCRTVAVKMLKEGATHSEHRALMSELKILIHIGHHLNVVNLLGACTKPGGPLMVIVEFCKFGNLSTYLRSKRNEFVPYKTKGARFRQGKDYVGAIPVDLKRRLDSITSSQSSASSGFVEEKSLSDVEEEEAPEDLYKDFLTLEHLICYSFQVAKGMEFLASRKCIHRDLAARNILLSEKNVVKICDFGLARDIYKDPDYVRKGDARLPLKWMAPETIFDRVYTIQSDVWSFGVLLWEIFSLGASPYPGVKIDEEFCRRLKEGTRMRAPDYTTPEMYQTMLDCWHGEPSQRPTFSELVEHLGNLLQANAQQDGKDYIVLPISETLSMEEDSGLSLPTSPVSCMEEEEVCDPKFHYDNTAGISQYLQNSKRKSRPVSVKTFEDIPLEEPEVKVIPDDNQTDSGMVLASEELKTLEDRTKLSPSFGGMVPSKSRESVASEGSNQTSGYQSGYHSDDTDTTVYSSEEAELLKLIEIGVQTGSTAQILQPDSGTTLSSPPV
Procedure, shortened: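 Buffer: 20 mM HEPES pH 7.4 with 5 mM MgCl2, 2 mM MnCl2 and 50 μM Na3VO4. Compound (0.0001–10 μM) was premixed 10 min with VEGFR2 (200 ng/10 μl), then poly(Glu,Tyr) substrate (10 ng/ml) and 5 μM ATP were added for 1 h at room temperature. EDTA-quenched samples were read by FP after 30 min with antibody and tracer.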

EGFR1 (HER-1) = EGFR1 (HER-1) (Homo sapiens (Human), UniProt P00533); assay: EGFR1 (HER-1) enzyme assay, fluorescence polarization; type: biochemical; details: 100 μM ATP, poly(Glu, Tyr) substrate
[2] = system: skin cancer cell line, A431; assay: Inhibitory effect on growth of cancer cell line A431, SRB; type: cell-based; details: overexpressed EGFR1 (HER-1)
Procedure, shortened: (§1)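 Growth inhibition was measured by sulforhodamine-B staining (absorbance 570 nm) of TCA-fixed cells after 72 h compound exposure at 37 °C, 5% CO2. Test concentrations ran from 10 μM in 10-fold steps to 10^−4, with DMSO below 1%, in 10% FBS DMEM.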

[3] = system: breast cancer cell line, SK-Br3; assay: Inhibitory effect on growth of cancer cell line SK-Br3, SRB; type: cell-based; details: overexpressed EGFR2 (HER-2)
Procedure, shortened: as §1

[4] = system: colon and rectal cancer cell line, SW-620; assay: Inhibitory effect on growth of cancer cell line SW-620, SRB; type: cell-based; details: not having overexpressed EGFR and EGFR2
Procedure, shortened: as §1

IC50 (VEGFR2 (KDR)) | IC50 (EGFR1 (HER-1)) | IC50 ([2]; Homo sapiens, A-431, 72 h) | IC50 ([3]; Homo sapiens, SK-BR-3, 72 h) | IC50 ([4]; Homo sapiens, 72 h) | IC50 ([2]; 72 hours) | IC50 ([3]; 72 hours) | IC50 ([4]; 72 hours) | Compound | IC50 ([1]; Homo sapiens, 96 h) | IC50 ([1]; 96 hours)
0.654 µM | 0.012 µM | 0.015 µM | 0.112 µM | 0.727 µM |  |  |  | C=CC(=O)Nc1cc2c(Nc3ccc(Br)cc3F)ncnc2cc1OCCNC(=O)CN1CCN(C)CC1 [Example 102, N-(4-(4-bromo-2-fluoro-phenylamino)-7-{2-[2-(4-methyl-piperazin-1-yl)-acetylamino]-ethoxy}-quinazolin-6-yl)-acrylamide] | 0.682 µM | 
0.658 µM | 0.325 µM |  |  |  | 0.452 µM | 0.658 µM | 2.66 µM | N-{2-[6-acryloylamino-4-(4-bromo-2-fluoro-phenylamino)-quinazolin-7-yloxy]-ethyl}-3-dimethylamino-butylamide [Example 75] |  | 0.69 µM
0.153 µM | 0.005 µM | 0.007 µM | 0.022 µM | 10 µM |  |  |  | C=CC(=O)Nc1cc2c(Nc3cc(Cl)c(Cl)cc3F)ncnc2cc1OCCNC(C)=O [Example 121, N-[7-(2-acetylamino-ethoxy)-4-(4,5-dichloro-2-fluoro-phenylamino)-quinazolin-6-yl]-acrylamide] | 0.383 µM | 
0.954 µM | 0.004 µM | 0.005 µM | 0.04 µM | 9.58 µM |  |  |  | C=CC(=O)Nc1cc2c(Nc3cc(Cl)c(Cl)cc3F)ncnc2cc1OCCNC(=O)CC [Example 137, N-[4-(4,5-dichloro-2-fluoro-phenylamino)-7-(2-propionylamino-ethoxy)-quinazolin-6-yl]-acrylamide] | 0.951 µM | 
0.09 µM | 0.087 µM | 0.091 µM | 3.3 µM | 10 µM |  |  |  | C=CC(=O)Nc1cc2c(Nc3cc(OC)c(Cl)cc3OC)ncnc2cc1OCCNC(C)=O [Example 172, N-[7-(2-acetylamino-ethoxy)-4-(4-chloro-2,5-dimethoxy-phenylamino)-quinazolin-6-yl]-acrylamide] | 0.125 µM | 
0.854 µM | 0.042 µM | 0.045 µM | 0.897 µM | 10 µM |  |  |  | C=CC(=O)Nc1cc2c(Nc3ccc(Br)cc3Cl)ncnc2cc1OCCNC(C)=O [Example 115, N-[7-(2-acetylamino-ethoxy)-4-(4-bromo-2-chloro-phenylamino)-quinazolin-6-yl]-acrylamide] | 0.934 µM | 
0.189 µM | 0.068 µM | 0.089 µM | 0.043 µM | 8.25 µM |  |  |  | C=CC(=O)Nc1cc2c(Nc3ccc(Br)c(Cl)c3F)ncnc2cc1OCCNC(=S)NCC [Example 170, N-{4-(4-bromo-3-chloro-2-fluoro-phenylamino)-7-[2-(3-ethyl-thioureido)-ethoxy]-quinazolin-6-yl}-acrylamide] | 0.287 µM | 
0.477 µM | 0.295 µM | 0.31 µM | 1.28 µM | 10 µM |  |  |  | C=CC(=O)Nc1cc2c(Nc3ccc(Br)cc3F)ncnc2cc1OCCNc1nccs1 [Example 90, N-{4-(4-bromo-2-fluoro-phenylamino)-7-[2-(thiazol-2-ylamino)-ethoxy]-quinazolin-6-yl}-acrylamide] | 0.589 µM | 
0.155 µM | 0.019 µM | 0.013 µM | 0.166 µM | 10 µM |  |  |  | C=CCNC(=O)NCCOc1cc2ncnc(Nc3ccc(Br)cc3F)c2cc1NC(=O)C=C [Example 40, N-[7-[2-(3-allyl-ureido)-ethoxy]-4-(4-bromo-2-fluoro-phenylamino)-quinazolin-6-yl]-acrylamide] | 0.268 µM | 
0.209 µM | 0.024 µM | 0.027 µM | 0.067 µM | 9.57 µM |  |  |  | C=CC(=O)Nc1cc2c(Nc3ccc(Br)cc3F)ncnc2cc1OCCNC(=O)CS(C)(=O)=O [Example 47, N-{4-(4-bromo-2-fluoro-phenylamino)-7-[2-(2-methanesulfonyl-acetylamino)-ethoxy]-quinazolin-6-yl}-acrylamide] | 0.269 µM | 
